# Values quoted from earlier work in paper PMC7583271 (Journal of Insect Science, 2020).
# Target: antennal binding protein (PxylABP, accession no. AB189031.1)
# Conditions: unit inferred, ref Deng et al. 2016
smiles,measurement,value
C=CCN=C=S [Allyl isothiocyanate],Kd,910 nM
